PubChem BioAssay (NCI)
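48-hour exposure; five concentrations; linearly interpolated endpoints. TGI: concentration producing complete growth inhibition.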

Tests used:
Test in all cases: DTP human tumour cell line panel, 48 h
786-0 renal = test system: 786-0 renal
A549 NSCLC = test system: A549 NSCLC
ACHN renal = test system: ACHN renal
CCRF-CEM leukemia = test system: CCRF-CEM leukemia
COLO 205 colon = test system: COLO 205 colon
DLD-1 colon = test system: DLD-1 colon
DMS 114 small cell lung = test system: DMS 114 small cell lung
DMS 273 small cell lung = test system: DMS 273 small cell lung
EKVX NSCLC = test system: EKVX NSCLC
HCC-2998 colon = test system: HCC-2998 colon
HCT-116 colon = test system: HCT-116 colon
HCT-15 colon = test system: HCT-15 colon
HL-60(TB) leukemia = test system: HL-60(TB) leukemia
HOP-62 NSCLC = test system: HOP-62 NSCLC
IGROV1 ovarian = test system: IGROV1 ovarian
K-562 leukemia = test system: K-562 leukemia
KM12 colon = test system: KM12 colon
LOX IMVI melanoma = test system: LOX IMVI melanoma
LXFL 529 NSCLC = test system: LXFL 529 NSCLC
M14 melanoma = test system: M14 melanoma
M19-MEL melanoma = test system: M19-MEL melanoma
MALME-3M melanoma = test system: MALME-3M melanoma
MOLT-4 leukemia = test system: MOLT-4 leukemia
NCI-H226 lung = test system: NCI-H226 lung
NCI-H23 lung = test system: NCI-H23 lung
NCI-H522 lung = test system: NCI-H522 lung
OVCAR-3 ovarian = test system: OVCAR-3 ovarian
OVCAR-4 ovarian = test system: OVCAR-4 ovarian
OVCAR-5 ovarian = test system: OVCAR-5 ovarian
OVCAR-8 ovarian = test system: OVCAR-8 ovarian
RPMI-8226 leukemia = test system: RPMI-8226 leukemia
RXF 393 renal = test system: RXF 393 renal
RXF-631 renal = test system: RXF-631 renal
SF-268 CNS = test system: SF-268 CNS
SF-295 CNS = test system: SF-295 CNS
SF-539 CNS = test system: SF-539 CNS
SK-MEL-2 melanoma = test system: SK-MEL-2 melanoma
SK-MEL-28 melanoma = test system: SK-MEL-28 melanoma
SK-MEL-5 melanoma = test system: SK-MEL-5 melanoma
SK-OV-3 ovarian = test system: SK-OV-3 ovarian
SN12C renal = test system: SN12C renal
SNB-19 CNS = test system: SNB-19 CNS
SNB-75 CNS = test system: SNB-75 CNS
SNB-78 CNS = test system: SNB-78 CNS
SR leukemia = test system: SR leukemia
SW-620 colon = test system: SW-620 colon
TK-10 renal = test system: TK-10 renal
U251 CNS = test system: U251 CNS
UACC-257 melanoma = test system: UACC-257 melanoma
UACC-62 melanoma = test system: UACC-62 melanoma
UO-31 renal = test system: UO-31 renal
XF 498 CNS = test system: XF 498 CNS
CAKI-1 renal = test system: CAKI-1 renal
HOP-18 NSCLC = test system: HOP-18 NSCLC
HOP-92 NSCLC = test system: HOP-92 NSCLC
HT29 colon = test system: HT29 colon
KM20L2 colon = test system: KM20L2 colon
NCI-H460 lung = test system: NCI-H460 lung

COC(=O)C1(C)CCc2c(OC)ccc(OC)c2C1=O (stereo not drawn)
TGI (786-0 renal): > 100 µM
TGI (A549 NSCLC): > 100 µM
TGI (ACHN renal): > 100 µM
TGI (CCRF-CEM leukemia): > 100 µM
TGI (COLO 205 colon): > 100 µM
TGI (DLD-1 colon): > 100 µM
TGI (DMS 114 small cell lung): > 100 µM
TGI (DMS 273 small cell lung): > 100 µM
TGI (EKVX NSCLC): > 100 µM
TGI (HCC-2998 colon): > 100 µM
TGI (HCT-116 colon): > 100 µM
TGI (HCT-15 colon): > 100 µM
TGI (HL-60(TB) leukemia): > 100 µM
TGI (HOP-62 NSCLC): > 100 µM
TGI (IGROV1 ovarian): > 100 µM
TGI (K-562 leukemia): > 100 µM
TGI (KM12 colon): > 100 µM
TGI (LOX IMVI melanoma): > 100 µM
TGI (LXFL 529 NSCLC): > 100 µM
TGI (M14 melanoma): > 100 µM
TGI (M19-MEL melanoma): > 100 µM
TGI (MALME-3M melanoma): > 100 µM
TGI (MOLT-4 leukemia): > 100 µM
TGI (NCI-H226 lung): > 100 µM
TGI (NCI-H23 lung): > 100 µM
TGI (NCI-H522 lung): > 100 µM
TGI (OVCAR-3 ovarian): > 100 µM
TGI (OVCAR-4 ovarian): > 100 µM
TGI (OVCAR-5 ovarian): > 100 µM
TGI (OVCAR-8 ovarian): > 100 µM
TGI (RPMI-8226 leukemia): > 100 µM
TGI (RXF 393 renal): > 100 µM
TGI (RXF-631 renal): > 100 µM
TGI (SF-268 CNS): > 100 µM
TGI (SF-295 CNS): > 100 µM
TGI (SF-539 CNS): > 100 µM
TGI (SK-MEL-2 melanoma): > 100 µM
TGI (SK-MEL-28 melanoma): > 100 µM
TGI (SK-MEL-5 melanoma): > 100 µM
TGI (SK-OV-3 ovarian): > 100 µM
TGI (SN12C renal): > 100 µM
TGI (SNB-19 CNS): > 100 µM
TGI (SNB-75 CNS): > 100 µM
TGI (SNB-78 CNS): > 100 µM
TGI (SR leukemia): > 100 µM
TGI (SW-620 colon): > 100 µM
TGI (TK-10 renal): > 100 µM
TGI (U251 CNS): > 100 µM
TGI (UACC-257 melanoma): > 100 µM
TGI (UACC-62 melanoma): > 100 µM
TGI (UO-31 renal): > 100 µM
TGI (XF 498 CNS): > 100 µM

Cc1ccc(C2OC(COCc3ccc(Cl)cc3)C(OCc3ccc(Cl)cc3)C2O)cc1 (stereo not drawn)
TGI (A549 NSCLC): 30.1 µM
TGI (ACHN renal): 41.8 µM
TGI (CAKI-1 renal): 38.3 µM
TGI (COLO 205 colon): > 100 µM
TGI (DLD-1 colon): 34.1 µM
TGI (DMS 114 small cell lung): 22.2 µM
TGI (DMS 273 small cell lung): 18.9 µM
TGI (EKVX NSCLC): 40 µM
TGI (HCC-2998 colon): 72.7 µM
TGI (HCT-116 colon): > 100 µM
TGI (HCT-15 colon): > 100 µM
TGI (HOP-18 NSCLC): > 100 µM
TGI (HOP-92 NSCLC): 15.6 µM
TGI (HT29 colon): 26.2 µM
TGI (IGROV1 ovarian): 35.5 µM
TGI (K-562 leukemia): > 100 µM
TGI (KM12 colon): 71.2 µM
TGI (KM20L2 colon): 56.1 µM
TGI (LXFL 529 NSCLC): 58.5 µM
TGI (M19-MEL melanoma): 38.1 µM
TGI (MOLT-4 leukemia): > 100 µM
TGI (NCI-H226 lung): 38.5 µM
TGI (NCI-H23 lung): 40.3 µM
TGI (NCI-H460 lung): 14.9 µM
TGI (OVCAR-3 ovarian): 27.5 µM
TGI (OVCAR-4 ovarian): 40.9 µM
TGI (OVCAR-5 ovarian): > 100 µM
TGI (OVCAR-8 ovarian): 36.9 µM
TGI (RPMI-8226 leukemia): 81.2 µM
TGI (RXF 393 renal): 10.8 µM
TGI (SF-295 CNS): 32 µM
TGI (SF-539 CNS): 36.2 µM
TGI (SK-MEL-2 melanoma): 31 µM
TGI (SK-MEL-28 melanoma): > 100 µM
TGI (SK-MEL-5 melanoma): 25.9 µM
TGI (SK-OV-3 ovarian): 15.3 µM
TGI (SN12C renal): 13.1 µM
TGI (SNB-19 CNS): 56.7 µM
TGI (SNB-78 CNS): 29.6 µM
TGI (SR leukemia): > 100 µM
TGI (SW-620 colon): 49.5 µM
TGI (TK-10 renal): 29.7 µM
TGI (U251 CNS): 34.2 µM
TGI (UACC-257 melanoma): 43.1 µM
TGI (UACC-62 melanoma): 18.7 µM
TGI (UO-31 renal): 23.8 µM
TGI (XF 498 CNS): 22.6 µM

CC1(C)OC(=O)C(C#N)=C1/C=C/c1coc2ccc(Cl)cc2c1=O
TGI (786-0 renal): > 100 µM
TGI (A549 NSCLC): > 100 µM
TGI (CAKI-1 renal): 57.5 µM
TGI (CCRF-CEM leukemia): 87 µM
TGI (COLO 205 colon): > 100 µM
TGI (DLD-1 colon): 98 µM
TGI (DMS 114 small cell lung): > 100 µM
TGI (DMS 273 small cell lung): > 100 µM
TGI (EKVX NSCLC): > 100 µM
TGI (HCC-2998 colon): > 100 µM
TGI (HCT-116 colon): > 100 µM
TGI (HCT-15 colon): 87.2 µM
TGI (HOP-62 NSCLC): 79.3 µM
TGI (IGROV1 ovarian): > 100 µM
TGI (K-562 leukemia): > 100 µM
TGI (KM12 colon): > 100 µM
TGI (KM20L2 colon): > 100 µM
TGI (LOX IMVI melanoma): 40.5 µM
TGI (LXFL 529 NSCLC): > 100 µM
TGI (M14 melanoma): > 100 µM
TGI (M19-MEL melanoma): > 100 µM
TGI (MALME-3M melanoma): 66.1 µM
TGI (MOLT-4 leukemia): 94.1 µM
TGI (NCI-H226 lung): 92.6 µM
TGI (NCI-H23 lung): 52 µM
TGI (NCI-H460 lung): 43.8 µM
TGI (NCI-H522 lung): > 100 µM
TGI (OVCAR-3 ovarian): 46.2 µM
TGI (OVCAR-4 ovarian): 55 µM
TGI (OVCAR-5 ovarian): > 100 µM
TGI (OVCAR-8 ovarian): 74.6 µM
TGI (RPMI-8226 leukemia): > 100 µM
TGI (RXF-631 renal): > 100 µM
TGI (SF-268 CNS): > 100 µM
TGI (SF-295 CNS): > 100 µM
TGI (SK-MEL-2 melanoma): 50.9 µM
TGI (SK-MEL-28 melanoma): > 100 µM
TGI (SK-MEL-5 melanoma): 53.5 µM
TGI (SK-OV-3 ovarian): 69.7 µM
TGI (SN12C renal): 96 µM
TGI (SNB-19 CNS): > 100 µM
TGI (SNB-75 CNS): 53.5 µM
TGI (SNB-78 CNS): > 100 µM
TGI (SR leukemia): > 100 µM
TGI (SW-620 colon): > 100 µM
TGI (U251 CNS): > 100 µM
TGI (UACC-257 melanoma): > 100 µM
TGI (UACC-62 melanoma): 89.8 µM
TGI (UO-31 renal): 83.6 µM

COC(=O)c1onc(-c2c(OC)cc(OC)cc2OC)c1C(=O)OC
TGI (786-0 renal): > 100 µM
TGI (A549 NSCLC): > 100 µM
TGI (ACHN renal): > 100 µM
TGI (CAKI-1 renal): > 100 µM
TGI (CCRF-CEM leukemia): > 100 µM
TGI (COLO 205 colon): > 100 µM
TGI (DLD-1 colon): > 100 µM
TGI (DMS 114 small cell lung): > 100 µM
TGI (DMS 273 small cell lung): > 100 µM
TGI (EKVX NSCLC): > 100 µM
TGI (HCC-2998 colon): > 100 µM
TGI (HCT-116 colon): > 100 µM
TGI (HCT-15 colon): > 100 µM
TGI (HL-60(TB) leukemia): > 100 µM
TGI (HOP-18 NSCLC): > 100 µM
TGI (HOP-62 NSCLC): > 100 µM
TGI (HOP-92 NSCLC): > 100 µM
TGI (HT29 colon): > 100 µM
TGI (IGROV1 ovarian): > 100 µM
TGI (K-562 leukemia): > 100 µM
TGI (KM12 colon): > 100 µM
TGI (KM20L2 colon): > 100 µM
TGI (LOX IMVI melanoma): > 100 µM
TGI (LXFL 529 NSCLC): > 100 µM
TGI (M14 melanoma): > 100 µM
TGI (M19-MEL melanoma): > 100 µM
TGI (MALME-3M melanoma): > 100 µM
TGI (MOLT-4 leukemia): > 100 µM
TGI (NCI-H226 lung): > 100 µM
TGI (NCI-H23 lung): > 100 µM
TGI (NCI-H460 lung): > 100 µM
TGI (NCI-H522 lung): > 100 µM
TGI (OVCAR-3 ovarian): > 100 µM
TGI (OVCAR-4 ovarian): > 100 µM
TGI (OVCAR-5 ovarian): > 100 µM
TGI (OVCAR-8 ovarian): > 100 µM
TGI (RPMI-8226 leukemia): > 100 µM
TGI (RXF 393 renal): > 100 µM
TGI (SF-268 CNS): > 100 µM
TGI (SF-295 CNS): > 100 µM
TGI (SK-MEL-2 melanoma): > 100 µM
TGI (SK-MEL-28 melanoma): > 100 µM
TGI (SK-MEL-5 melanoma): > 100 µM
TGI (SK-OV-3 ovarian): > 100 µM
TGI (SNB-19 CNS): > 100 µM
TGI (SNB-75 CNS): > 100 µM
TGI (SNB-78 CNS): > 100 µM
TGI (SR leukemia): > 100 µM
TGI (SW-620 colon): > 100 µM
TGI (TK-10 renal): > 100 µM
TGI (U251 CNS): > 100 µM
TGI (UACC-257 melanoma): > 100 µM
TGI (UACC-62 melanoma): > 100 µM
TGI (UO-31 renal): > 100 µM
TGI (XF 498 CNS): > 100 µM
